Earlier results on 12 compounds are cited in paper PMC8672822 (RSC Medicinal Chemistry, 2021).

The pIC50 is the negative decadic logarithm of the IC50, by convention in mol/L. A word on the pKd: it is the negative decadic logarithm of the Kd, by convention in mol/L. The pKi is −log10 of the Ki, conventionally taken in molar units.

Data set [1] has as its system DC-SIGN.
Data set [2] concerns DC-SIGN. The conditions noted are these: relative to plate assay.
Data set [3] deals with DC-SIGN. The settings on record: SPR direct.
Data set [4] addresses DC-SIGN. The settings on record: ITC. (In general: ITC needs no label: the signal is the heat of the interaction.)
The subject of data set [5] is Langerin.
Data set [6] relates to DC-SIGN. The settings on record: SPR competition.
Data set [7] deals with DC-SIGN. The conditions noted are these: monovalent.
The test system of data set [8] is Langerin. The source holds these as a separate data set.
For data set [9] the following is noted: in comparison to Man-α-1,2-Man.
Another data set concerns murine Mincle. The settings on record: murine isoform.
The subject of another data set is human Mincle. The settings on record: human isoform.
The test system of data set [10] is peripheral blood mononuclear cells (PBMCs) or bone marrow-derived macrophages (BMDM).

pIC50, pKd, pKi: −log10 of the molar value. Like-named read-outs stand apart in the source and are kept apart here.

On to `[N-]=[N+]=NCCO[C@H]1C[C@H](C(=O)NCc2ccc(CO)cc2)[C@@H](C(=O)NCc2ccc(CO)cc2)C[C@@H]1O[C@H]1O[C@H](CO)[C@@H](O)[C@H](O)[C@@H]1O` [compound 25], for which the pIC50 with DC-SIGN [1] (SPR competition) was 3.52.

In the case of `CC(C)OC(=O)c1ccc(-c2ccc(/C=C3\C(=O)N(c4ccc(S(N)(=O)=O)cc4)N=C3C(F)(F)F)o2)cc1` [compound 33], in the data set with DC-SIGN [2], the “decrease in affinity in cellular assay” value is given as “up to 100 fold”.

Take `NCc1cn([C@@H]2[C@@H](O[C@H]3C[C@H](C(=O)NCc4ccc(CO)cc4)[C@@H](C(=O)NCc4ccc(CO)cc4)C[C@@H]3OCCCl)O[C@H](CO)[C@@H](O)[C@@H]2O)nn1` [compound 27]: the pIC50 with DC-SIGN [1] (SPR competitive) was 4.12. Also, the pKd on DC-SIGN [3] and on DC-SIGN [4] was 4.28 in each case. The “selectivity for DC-SIGN over Langerin” value in the data set on Langerin [5] is recorded as “full selectivity against Langerin”.

Take 2-C-aminomethyl-D-mannose [compound 21]: the negative-log IC50 (pIC50) with DC-SIGN [6] is 3.46.

`OC[C@H]1O[C@H](O[C@H]2O[C@H](CO)[C@@H](O)[C@H](O)[C@H]2O)[C@H](O)[C@@H](O)[C@@H]1O` [trehalose]: in the data set on macrophage, the macrophage activation entry was “no effect”.

For the compound `NC(=O)[C@H](CCC(=O)O)NC(=O)[C@H]1C[C@@H](O)[C@H](O)[C@H](O)[C@H]1SCCCCSCc1cccc(F)c1` [compound 22], in the data set with DC-SIGN [7], the pIC50 was 2.49.

As to `CC(=O)NCCO[C@@H]1O[C@H](CO)[C@@H](O)[C@H](O)[C@H]1NS(=O)(=O)c1ccc(C)cc1` [compound 19], in the data set with Langerin [8], the “increase in binding affinity compared to the reference N-acetyl glucosamine” value is 13 fold.

As to `NS(=O)(=O)c1ccc(CCCC2Nc3ccc(C(=O)N4CCN(c5ccncc5)CC4)cc3NC2=O)cc1` (stereo not shown) [compound 36], the aqueous solubility entry is “improved aqueous solubility”.

As to `NC(=O)c1ccc(CCCC2Nc3ccc(C(=O)N4CCN(c5ncccn5)CC4)cc3NC2=O)cc1` (stereo not shown) [compound 35], the aqueous solubility result is listed as “improved aqueous solubility”.

`[N-]=[N+]=NCCO[C@H]1C[C@H](C(=O)NCc2ccc(CO)cc2)[C@@H](C(=O)NCc2ccc(CO)cc2)C[C@@H]1O[C@H]1O[C@H](CN)[C@@H](O)[C@H](O)[C@@H]1O` [compound 26]: the pIC50 in the data set with DC-SIGN [1] (SPR competitive) is 3.60. In addition, the negative logarithm of the Kd (pKd) was 3.51 at DC-SIGN [3] and 3.77 at DC-SIGN [4]. Also, the “selectivity for DC-SIGN over Langerin” value with Langerin [5] was “fully selective for DC-SIGN over Langerin”.

For the compound `COC(=O)[C@H]1C[C@H](OCCN)[C@@H](O[C@H]2O[C@H](CO)[C@@H](O)[C@H](O)[C@@H]2O)C[C@@H]1C(=O)OC` [compound 24], in the data set on DC-SIGN+ cells, the “activity in comparison to Man-α-1,2-Man” value is listed as “three times more active”. For the same compound, in [9], the “resistance towards enzymatic digestion” value is given as “more resistant”.

On to `Cc1cc(O)cc(O)c1C(=O)OC[C@H]1O[C@H](O[C@H]2O[C@H](COC(=O)c3c(C)cc(O)cc3O)[C@@H](O)[C@H](O)[C@H]2O)[C@H](O)[C@@H](O)[C@@H]1O` [compound 3, brartemicin], for which, at bovine Mincle, the pKi was 5.26. Further, the binding result in the data set with murine Mincle and in the data set on human Mincle was “no binding” in each case. For the same compound, in [10], the Mincle-induced immune activation entry is “no or a less effective Mincle-induced immune activation”.
